The values below come from US20240124431A1, “2,3-DIHYDRO-4H-BENZO[B][1,4]OXAZIN-4-YL)(5-(PHENYL)-PYRIDIN-3-YL)METHANONE DERIVATIVES AND SIMILAR COMPOUNDS AS CYP11A1 INHIBITORS FOR THE TREATMENT OF PROSTATE CANCER” (ORION CORPORATION, priority 2020, published 2024).

Each structure is given as a SMILES string. Where only a bound is given, the exact number is not on record here.

The target of this test is T1, CYP11A1 (Homo sapiens, UniProt P05108).
T1 construct: endogenous in cells; host or cells: NCI-H295R
T1 sequence (P05108 40-521): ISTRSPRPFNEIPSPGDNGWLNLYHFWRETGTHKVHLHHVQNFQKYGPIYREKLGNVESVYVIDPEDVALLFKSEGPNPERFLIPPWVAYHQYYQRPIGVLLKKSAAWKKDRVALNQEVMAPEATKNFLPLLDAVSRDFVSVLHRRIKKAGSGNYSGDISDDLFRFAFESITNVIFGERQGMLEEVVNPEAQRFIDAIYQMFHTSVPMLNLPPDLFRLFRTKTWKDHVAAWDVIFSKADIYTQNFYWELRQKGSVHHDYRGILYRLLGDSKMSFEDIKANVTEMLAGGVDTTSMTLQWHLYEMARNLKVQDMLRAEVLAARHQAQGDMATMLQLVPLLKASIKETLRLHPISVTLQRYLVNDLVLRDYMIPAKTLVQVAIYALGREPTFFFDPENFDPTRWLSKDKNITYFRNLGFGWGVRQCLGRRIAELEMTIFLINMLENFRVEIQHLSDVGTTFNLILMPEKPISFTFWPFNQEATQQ
The experiment in a line: CYP11A1 inhibition: pregnenolone biosynthesis measured by ELISA in NCI-H295R cells. It is filed as cell-based. As to conditions: NCI-H295R cells treated for 24 hours, 10 concentrations in duplicates, read-out: IC50 on CYP11A1 inhibition (Group). As to the method: The ability of the test compounds to inhibit pregnenolone biosynthesis was measured by enzyme-linked immunosorbent assay (ELISA) detecting pregnenolone (Abnova Pregnenolone ELISA Kit, KA1912). […] To determine the half maximal inhibitory concentration (IC50) of the test compounds on CYP11A1 inhibition, the cells were treated for 24 hours with increasing concentrations of the test compound. The final DMSO concentration was 0.4%. Medium samples were diluted 1:6 and pregnenolone amounts determined with ELISA. Manufacturer's recommended protocols were used and pregnenolone (Sigma-Aldrich, P9129) standards were prepared in cell culture medium. Absorbance (A450) was measured with Envision plate reader (PerkinElmer). All the test compounds were studied at 10 concentrations in duplicates.
On the technique in general: In an ELISA, binding on a coated surface is turned into a signal by an enzyme label.
A word on the IC50: it is the concentration that gives 50% inhibition. `O=C(c1cnnc(-c2ccc(F)cc2)c1)N1CCOc2ccccc21` [Compound 40, (2,3-Dihydro-4H-benzo[b][1,4]oxazin-4-yl)(6-(4-fluorophenyl)pyridazin-4-yl)-methanone]: the IC50 is below 0.05 µM.
Then `O=C(c1cncc(-c2ccccc2F)c1)N1CCOc2ccccc21` [Compound 41, (2,3-Dihydro-4H-benzo[b][1,4]oxazin-4-yl)(5-(2-fluorophenyl)pyridin-3-yl)-methanone], with below 0.05 µM; and `O=C(c1cncc(-c2ccc(F)cc2)c1)N1CCCc2ncccc21` [Compound 42, (3,4-Dihydro-1,5-naphthyridin-1(2H)-yl)(5-(4-fluorophenyl)pyridin-3-yl)-methanone], with 0.051 to 0.2 µM.
Consider `Cn1cc(-c2cncc(C(=O)N3CCOc4ccccc43)n2)cn1` [Compound 43, (2,3-Dihydro-4H-benzo[b][1,4]oxazin-4-yl)(6-(1-methyl-1H-pyrazol-4-yl)-pyrazin-2-yl)methanone], for which the IC50 was 0.051 to 0.2 µM.
Then `O=C(c1cncc(-c2ccc(C(F)(F)F)cc2)c1)N1CCOc2ccccc21` [Compound 44, (2,3-Dihydro-4H-benzo[b][1,4]oxazin-4-yl)(5-(4-(trifluoromethyl)phenyl)pyridin-3-yl)methanone], with 0.051 to 0.2 µM; and `COc1cc(F)ccc1-c1cncc(C(=O)N2CCOc3ccccc32)c1` [Compound 45, (2,3-Dihydro-4H-benzo[b][1,4]oxazin-4-yl)(5-(4-fluoro-2-methoxyphenyl)-pyridin-3-yl)methanone], with 0.051 to 0.2 µM; and `O=S(=O)(c1cncc(-c2ccc(F)cc2)c1)N1CCOc2ccccc21` [Compound 46, 4-((5-(4-Fluorophenyl)pyridin-3-yl)sulfonyl)-3,4-dihydro-2H-benzo[b][1,4]-oxazine], with 0.051 to 0.2 µM.
In the case of `O=S(=O)(c1cncc(-c2ccc(F)cc2)c1)N1CCCc2ccccc21` [Compound 47, 1-((5-(4-Fluorophenyl)pyridin-3-yl)sulfonyl)-1,2,3,4-tetrahydroquinoline] it was 0.051 to 0.2 µM; in that of `O=C(c1cncc(-c2cccc(C(F)(F)F)c2)c1)N1CCOc2ccccc21` [Compound 48, (2,3-Dihydro-4H-benzo[b][1,4]oxazin-4-yl)(5-(3-(trifluoromethyl)phenyl)pyridin-3-yl)methanone], 0.051 to 0.2 µM.
Then `O=C(c1cncc(-c2ccc(F)nc2)c1)N1CCOc2ccccc21` [Compound 49, (2,3-Dihydro-4H-benzo[b][1,4]oxazin-4-yl)(6′-fluoro-[3,3′-bipyridin]-5-yl)-methanone], with 0.051 to 0.2 µM; and `COc1cccc(-c2cncc(C(=O)N3CCOc4ccccc43)c2)c1` [Compound 50, (2,3-Dihydro-4H-benzo[b][1,4]oxazin-4-yl)(5-(3-methoxyphenyl)pyridin-3-yl)-methanone], with 0.051 to 0.2 µM; and `C=C(c1ccccc1)c1cncc(C(=O)N2CCCc3ccccc32)c1` [Compound 51, (3,4-Dihydroquinolin-1(2H)-yl)(5-(1-phenylvinyl)pyridin-3-yl)methanone], with 0.051 to 0.2 µM.
On to `O=C(c1cnnc(-c2ccccc2)c1)N1CCCc2ccccc21` [Compound 52, (3,4-Dihydroquinolin-1(2H)-yl)(6-phenylpyridazin-4-yl)methanone], for which the IC50 lay in the range of 0.051 to 0.2 µM.
In the case of `COc1ccc2c(c1)CCCN2C(=O)c1cncc(-c2ccccc2)c1` [Compound 53, (6-Methoxy-3,4-dihydroquinolin-1(2H)-yl)(5-phenylpyridin-3-yl)methanone] it was 0.051 to 0.2 µM; in that of `O=C(c1cncc(-c2ccc(CO)cc2)c1)N1CCCc2ccccc21` [Compound 54, (3,4-Dihydroquinolin-1(2H)-yl)(5-(4-(hydroxymethyl)phenyl)pyridin-3-yl)-methanone], 0.051 to 0.2 µM; in that of `O=C(c1cncc(-c2ccc(F)cc2)c1)N1CCOC2CCCCC21` (stereo not drawn) [Compound 55, (5-(4-Fluorophenyl)pyridin-3-yl)(octahydro-4H-benzo[b][1,4]oxazin-4-yl)-methanone], 0.051 to 0.2 µM.
As to `O=C(c1cncc(-c2ccc(F)cc2)c1)N1CCO[C@H]2CCCC[C@@H]21` [Compound 56, (5-(4-Fluorophenyl)pyridin-3-yl)((4aS,8aS)-octahydro-4H-benzo[b][1,4]oxazin-4-yl)methanone], the IC50 fell in the range of 0.051 to 0.2 µM.
Then `O=C(c1cncc(-c2ccc(F)cc2)c1)N1CCO[C@@H]2CCCC[C@H]21` [Compound 57, (5-(4-Fluorophenyl)pyridin-3-yl)((4aR,8aR)-octahydro-4H-benzo[b][1,4]oxazin-4-yl)methanone], with 0.201 to 2.5 µM; and `O=C(c1cncc(-c2ccc(F)c([N+](=O)[O-])c2)c1)N1CCOc2ccccc21` [Compound 58, (2,3-Dihydro-4H-benzo[b][1,4]oxazin-4-yl)(5-(4-fluoro-3-nitrophenyl)pyridin-3-yl)methanone], with 0.201 to 2.5 µM.
As for `COc1cccc2c1CCCN2C(=O)c1cncc(-c2ccccc2)c1` [Compound 59, (5-Methoxy-3,4-dihydroquinolin-1(2H)-yl)(5-phenylpyridin-3-yl)methanone], the IC50 was 0.201 to 2.5 µM.
In the case of `O=C(c1cncc(-c2ccc(F)cc2)c1)N1CCc2ccccc21` [Compound 60, (5-(4-Fluorophenyl)pyridin-3-yl)(indolin-1-yl)methanone], the IC50 lay in the range of 0.201 to 2.5 µM.
Take `O=C(c1cncc(-c2ccccc2)c1)N1CCCc2ncccc21` [Compound 61, (3,4-Dihydro-1,5-naphthyridin-1(2H)-yl)(5-phenylpyridin-3-yl)methanone]: the IC50 is 0.201 to 2.5 µM.
Then `O=C(c1cncc(-c2ccncc2)c1)N1CCCc2ccccc21` [Compound 62, [3,4′-Bipyridin]-5-yl(3,4-dihydroquinolin-1(2H)-yl)methanone], with 0.201 to 2.5 µM.
In the case of `Cn1nccc1-c1cncc(C(=O)N2CCOc3ccccc32)n1` [Compound 63, (2,3-Dihydro-4H-benzo[b][1,4]oxazin-4-yl)(6-(1-methyl-1H-pyrazol-5-yl)-pyrazin-2-yl)methanone] it was 0.201 to 2.5 µM; in that of `CC1CCc2ccccc2N1C(=O)c1cnnc(-c2ccc(F)cc2)c1` (stereo not drawn) [Compound 64, (6-(4-Fluorophenyl)pyridazin-4-yl)(2-methyl-3,4-dihydroquinolin-1(2H)-yl)-methanone], 0.201 to 2.5 µM; in that of `O=C(c1cncc(-c2ccc(CO)cc2)c1)N1CCOc2ccccc21` [Compound 65, (2,3-Dihydro-4H-benzo[b][1,4]oxazin-4-yl)(5-(4-(hydroxymethyl)phenyl)pyridin-3-yl)methanone], 0.201 to 2.5 µM.
Then `O=C(c1cncc(C2=CCOCC2)c1)N1CCOc2ccccc21` [Compound 66, (5-(3,6-Dihydro-2H-pyran-4-yl)pyridin-3-yl)(2,3-dihydro-4H-benzo[b][1,4]-oxazin-4-yl)methanone], with 0.201 to 2.5 µM; and `COC(=O)c1ccc2c(c1)CCCN2C(=O)c1cncc(-c2ccccc2)c1` [Compound 67, Methyl 1-(5-phenylnicotinoyl)-1,2,3,4-tetrahydroquinoline-6-carboxylate], with 0.201 to 2.5 µM; and `CN(C)Cc1ccc(-c2cncc(C(=O)N3CCCc4ccccc43)c2)cc1` [Compound 68, (3,4-Dihydroquinolin-1(2H)-yl)(5-(4-((dimethylamino)methyl)phenyl)pyridin-3-yl)methanone], with 0.201 to 2.5 µM.
Turning to `COc1ccc2c(c1)N(C(=O)c1cncc(-c3ccccc3)c1)CCC2` [Compound 69, (7-Methoxy-3,4-dihydroquinolin-1(2H)-yl)(5-phenylpyridin-3-yl)methanone], the IC50 lay in the range of 0.201 to 2.5 µM.
Then `O=C(c1cncc(-c2cccnc2)c1)N1CCCc2ccccc21` [Compound 70, [3,3′-Bipyridin]-5-yl(3,4-dihydroquinolin-1(2H)-yl)methanone], with 0.201 to 2.5 µM; and `Cc1ccc(-c2cncc(C(=O)N3CCOc4ccccc43)c2)cc1` [Compound 71, (2,3-Dihydro-4H-benzo[b][1,4]oxazin-4-yl)(5-(p-tolyl)pyridin-3-yl)methanone], with 0.201 to 2.5 µM.
Take `O=C(c1cncc(-c2ccc3c(c2)OCC3)c1)N1CCOC2CCCCC21` (stereo not drawn) [Compound 72, (5-(2,3-Dihydrobenzofuran-6-yl)pyridin-3-yl)(octahydro-4H-benzo[b][1,4]-oxazin-4-yl)methanone]: the IC50 was 0.201 to 2.5 µM.
In the case of `Cn1cc(-c2cncc(C(=O)N3CCOc4ccccc43)c2)cn1` [Compound 73, (2,3-Dihydro-4H-benzo[b][1,4]oxazin-4-yl)(5-(1-methyl-1H-pyrazol-4-yl)-pyridin-3-yl)methanone] it was 0.201 to 2.5 µM; in that of `O=C(c1cncc(N2CCCC2)c1)N1CCOc2ccccc21` [Compound 74, (2,3-Dihydro-4H-benzo[b][1,4]oxazin-4-yl)(5-(pyrrolidin-1-yl)pyridin-3-yl)-methanone], 0.201 to 2.5 µM.
Regarding `CC1(C)C2CN(c3cncc(C(=O)N4CCOc5ccccc54)c3)CC21` (stereo not drawn) [Compound 75], the IC50 fell in the range of 0.201 to 2.5 µM.
